From the supplement of paper PMC10307832

Columns and labels:
Assay in all cases: relative viability (nuclei count vs DMSO), 5 days (fraction); higher = more cells survive
FH535 + Trametinib = compound: CC1=C(C=CC(=C1)[N+](=O)[O-])NS(=O)(=O)C2=C(C=CC(=C2)Cl)Cl [FH535] + CC(=O)Nc1cccc(-n2c(=O)n(C3CC3)c(=O)c3c(Nc4ccc(I)cc4F)n(C)c(=O)c(C)c32)c1 [Trametinib] (partner 0.02 µM)
How it was run: (§1)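 Lung cancer cell lines were seeded in 1536-well plates and dosed by pin tool the next day, with either a single drug or a fixed anchor-drug dose combined with five library-drug doses (not always all listed) spaced in √10 steps. Five days later, one step fixed the cells and stained their nuclei (final 0.05% Triton X-100, 1% formaldehyde, 1 ug/ml Hoechst), and nuclei were counted on 4× images. Relative viability is the nuclei count in treated wells divided by the count in vehicle wells, and each value is the median of duplicate plates.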

FH535 + AZD7762 = compound: CC1=C(C=CC(=C1)[N+](=O)[O-])NS(=O)(=O)C2=C(C=CC(=C2)Cl)Cl [FH535] + NC(=O)Nc1cc(-c2cccc(F)c2)sc1C(=O)N[C@H]1CCCNC1 [AZD7762] (partner 0.2 µM)
How it was run: as §1

FH535 + OSI-027 = compound: CC1=C(C=CC(=C1)[N+](=O)[O-])NS(=O)(=O)C2=C(C=CC(=C2)Cl)Cl [FH535] + COc1cccc2cc(-c3nc([C@H]4CC[C@H](C(=O)O)CC4)n4ncnc(N)c34)[nH]c12 [OSI-027] (partner 0.5 µM)
How it was run: as §1

FH535 + Pemetrexed = compound: CC1=C(C=CC(=C1)[N+](=O)[O-])NS(=O)(=O)C2=C(C=CC(=C2)Cl)Cl [FH535] + Nc1nc2[nH]cc(CCc3ccc(C(=O)N[C@@H](CCC(=O)O)C(=O)O)cc3)c2c(=O)[nH]1 [Pemetrexed] (partner 0.2 µM)
How it was run: as §1

FH535 + Olaparib = compound: CC1=C(C=CC(=C1)[N+](=O)[O-])NS(=O)(=O)C2=C(C=CC(=C2)Cl)Cl [FH535] + O=C(c1cc(Cc2n[nH]c(=O)c3ccccc23)ccc1F)N1CCN(C(=O)C2CC2)CC1 [Olaparib] (partner 8 µM)
How it was run: as §1

FH535 + Decitabine = compound: CC1=C(C=CC(=C1)[N+](=O)[O-])NS(=O)(=O)C2=C(C=CC(=C2)Cl)Cl [FH535] + Nc1ncn([C@H]2C[C@H](O)[C@@H](CO)O2)c(=O)n1 [Decitabine] (partner 2 µM)
How it was run: as §1

FH535 + Palbociclib = compound: CC1=C(C=CC(=C1)[N+](=O)[O-])NS(=O)(=O)C2=C(C=CC(=C2)Cl)Cl [FH535] + CC(=O)c1c(C)c2cnc(Nc3ccc(N4CCNCC4)cn3)nc2n(C2CCCC2)c1=O [Palbociclib] (partner 0.5 µM)
How it was run: as §1

FH535 + Vorinostat = compound: CC1=C(C=CC(=C1)[N+](=O)[O-])NS(=O)(=O)C2=C(C=CC(=C2)Cl)Cl [FH535] + O=C(CCCCCCC(=O)Nc1ccccc1)NO [Vorinostat] (partner 1 µM)
How it was run: as §1

FH535 + Tozasertib = compound: CC1=C(C=CC(=C1)[N+](=O)[O-])NS(=O)(=O)C2=C(C=CC(=C2)Cl)Cl [FH535] + Cc1cc(Nc2cc(N3CCN(C)CC3)nc(Sc3ccc(NC(=O)C4CC4)cc3)n2)n[nH]1 [Tozasertib] (partner 0.1 µM)
How it was run: as §1

FH535 = compound: CC1=C(C=CC(=C1)[N+](=O)[O-])NS(=O)(=O)C2=C(C=CC(=C2)Cl)Cl [FH535]
How it was run: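 Nuclei counted with MetaXpress define viability as the ratio of treated to vehicle wells, given as a median across plates. The lung cancer cell lines were in 1536-well plates, pinned with five √10-spaced library-drug doses and imaged at 4× after 5 days and Hoechst staining. Plates passed with control CV below 25% and at least one doubling.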

FH535 + Pictilisib = compound: CC1=C(C=CC(=C1)[N+](=O)[O-])NS(=O)(=O)C2=C(C=CC(=C2)Cl)Cl [FH535] + CS(=O)(=O)N1CCN(Cc2cc3nc(-c4cccc5[nH]ncc45)nc(N4CCOCC4)c3s2)CC1 [Pictilisib] (partner 1 µM)
How it was run: as §1

FH535 + Lapatinib = compound: CC1=C(C=CC(=C1)[N+](=O)[O-])NS(=O)(=O)C2=C(C=CC(=C2)Cl)Cl [FH535] + CS(=O)(=O)CCNCc1ccc(-c2ccc3ncnc(Nc4ccc(OCc5cccc(F)c5)c(Cl)c4)c3c2)o1 [Lapatinib] (partner 2 µM)
How it was run: as §1

FH535 + Foretinib = compound: CC1=C(C=CC(=C1)[N+](=O)[O-])NS(=O)(=O)C2=C(C=CC(=C2)Cl)Cl [FH535] + COc1cc2c(Oc3ccc(NC(=O)C4(C(=O)Nc5ccc(F)cc5)CC4)cc3F)ccnc2cc1OCCCN1CCOCC1 [Foretinib] (partner 0.25 µM)
How it was run: as §1

FH535 + Linsitinib = compound: CC1=C(C=CC(=C1)[N+](=O)[O-])NS(=O)(=O)C2=C(C=CC(=C2)Cl)Cl [FH535] + C[C@]1(O)C[C@@H](c2nc(-c3ccc4ccc(-c5ccccc5)nc4c3)c3c(N)nccn32)C1 [Linsitinib] (partner 1 µM)
How it was run: as §1

FH535 + Phenformin = compound: CC1=C(C=CC(=C1)[N+](=O)[O-])NS(=O)(=O)C2=C(C=CC(=C2)Cl)Cl [FH535] + N=C(N)NC(=N)NCCc1ccccc1 [Phenformin] (partner 250 µM)
How it was run: as §1

FH535 + Navitoclax = compound: CC1=C(C=CC(=C1)[N+](=O)[O-])NS(=O)(=O)C2=C(C=CC(=C2)Cl)Cl [FH535] + CC1(C)CCC(c2ccc(Cl)cc2)=C(CN2CCN(c3ccc(C(=O)NS(=O)(=O)c4ccc(N[C@H](CCN5CCOCC5)CSc5ccccc5)c(S(=O)(=O)C(F)(F)F)c4)cc3)CC2)C1 [Navitoclax] (partner 0.5 µM)
How it was run: as §1

FH535 + Alpelisib = compound: CC1=C(C=CC(=C1)[N+](=O)[O-])NS(=O)(=O)C2=C(C=CC(=C2)Cl)Cl [FH535] + Cc1nc(NC(=O)N2CCC[C@H]2C(N)=O)sc1-c1ccnc(C(C)(C)C(F)(F)F)c1 [Alpelisib] (partner 2 µM)
How it was run: as §1

FH535 + Crizotinib = compound: CC1=C(C=CC(=C1)[N+](=O)[O-])NS(=O)(=O)C2=C(C=CC(=C2)Cl)Cl [FH535] + C[C@@H](Oc1cc(-c2cnn(C3CCNCC3)c2)cnc1N)c1c(Cl)ccc(F)c1Cl [Crizotinib] (partner 1 µM)
How it was run: as §1

## NCI-H1648
FH535 + Trametinib; first compound 0.1265 µM
  relative viability: 0.441
FH535 + Trametinib; first compound 0.4 µM
  relative viability: 0.544
FH535 + Trametinib; first compound 1.265 µM
  relative viability: 0.352
FH535 + AZD7762; first compound 0.1265 µM
  relative viability: 0.654
FH535 + AZD7762; first compound 0.4 µM
  relative viability: 0.612
FH535 + AZD7762; first compound 1.265 µM
  relative viability: 0.625
FH535 + OSI-027; first compound 0.04 µM
  relative viability: 0.243
FH535 + OSI-027; first compound 0.4 µM
  relative viability: 0.254
FH535 + OSI-027; first compound 1.265 µM
  relative viability: 0.243
FH535 + Pemetrexed; first compound 0.1265 µM
  relative viability: 0.655
FH535 + Pemetrexed; first compound 0.4 µM
  relative viability: 0.532
FH535 + Pemetrexed; first compound 1.265 µM
  relative viability: 0.635
FH535 + Olaparib; first compound 0.1265 µM
  relative viability: 0.888
FH535 + Olaparib; first compound 0.4 µM
  relative viability: 1.08
FH535 + Olaparib; first compound 1.265 µM
  relative viability: 0.383
FH535 + Decitabine; first compound 0.1265 µM
  relative viability: 0.585
FH535 + Decitabine; first compound 0.4 µM
  relative viability: 0.478
FH535 + Decitabine; first compound 1.265 µM
  relative viability: 0.398
FH535 + Palbociclib; first compound 0.1265 µM
  relative viability: 0.219
FH535 + Palbociclib; first compound 0.4 µM
  relative viability: 0.273
FH535 + Palbociclib; first compound 1.265 µM
  relative viability: 0.225
FH535 + Vorinostat; first compound 0.1265 µM
  relative viability: 0.595
FH535 + Vorinostat; first compound 0.4 µM
  relative viability: 0.709
FH535 + Vorinostat; first compound 1.265 µM
  relative viability: 0.473
FH535 + Tozasertib; first compound 0.04 µM
  relative viability: 0.397
FH535 + Tozasertib; first compound 0.4 µM
  relative viability: 0.603
FH535 + Tozasertib; first compound 1.265 µM
  relative viability: 0.281
FH535; 0.04 µM
  relative viability: 0.645
FH535; 0.1265 µM
  relative viability: 0.828
FH535; 0.4 µM
  relative viability: 0.837
FH535; 1.265 µM
  relative viability: 0.641

## A549
FH535 + Pictilisib; first compound 0.04 µM
  relative viability: 0.553
FH535 + Pictilisib; first compound 0.1265 µM
  relative viability: 0.511
FH535 + Pictilisib; first compound 0.4 µM
  relative viability: 0.494
FH535 + Pictilisib; first compound 1.265 µM
  relative viability: 0.398
FH535 + Lapatinib; first compound 0.04 µM
  relative viability: 0.979
FH535 + Lapatinib; first compound 0.1265 µM
  relative viability: 0.947
FH535 + Lapatinib; first compound 0.4 µM
  relative viability: 0.864
FH535 + Lapatinib; first compound 1.265 µM
  relative viability: 0.578
FH535 + Foretinib; first compound 0.04 µM
  relative viability: 0.947
FH535 + Foretinib; first compound 0.1265 µM
  relative viability: 0.981
FH535 + Foretinib; first compound 0.4 µM
  relative viability: 0.853
FH535 + Foretinib; first compound 1.265 µM
  relative viability: 0.722
FH535 + Linsitinib; first compound 0.04 µM
  relative viability: 0.497
FH535 + Linsitinib; first compound 0.1265 µM
  relative viability: 0.627
FH535 + Linsitinib; first compound 0.4 µM
  relative viability: 0.641
FH535 + Linsitinib; first compound 1.265 µM
  relative viability: 0.568
FH535 + Phenformin; first compound 0.04 µM
  relative viability: 0.175
FH535 + Phenformin; first compound 0.1265 µM
  relative viability: 0.159
FH535 + Phenformin; first compound 0.4 µM
  relative viability: 0.116
FH535 + Phenformin; first compound 1.265 µM
  relative viability: 0.043
FH535 + Olaparib; first compound 0.04 µM
  relative viability: 0.28
FH535 + Olaparib; first compound 0.1265 µM
  relative viability: 0.306
FH535 + Olaparib; first compound 0.4 µM
  relative viability: 0.284
FH535 + Olaparib; first compound 1.265 µM
  relative viability: 0.299
FH535 + Navitoclax; first compound 0.04 µM
  relative viability: 1.28
FH535 + Navitoclax; first compound 0.1265 µM
  relative viability: 1.16
FH535 + Navitoclax; first compound 0.4 µM
  relative viability: 1.25
FH535 + Navitoclax; first compound 1.265 µM
  relative viability: 0.936
FH535 + Decitabine; first compound 0.04 µM
  relative viability: 0.251
FH535 + Decitabine; first compound 0.1265 µM
  relative viability: 0.228
FH535 + Decitabine; first compound 0.4 µM
  relative viability: 0.161
FH535 + Decitabine; first compound 1.265 µM
  relative viability: 0.222
FH535 + Alpelisib; first compound 0.04 µM
  relative viability: 0.842
FH535 + Alpelisib; first compound 0.1265 µM
  relative viability: 0.754
FH535 + Alpelisib; first compound 0.4 µM
  relative viability: 0.72
FH535 + Alpelisib; first compound 1.265 µM
  relative viability: 0.705
FH535 + Crizotinib; first compound 0.04 µM
  relative viability: 0.749
FH535 + Crizotinib; first compound 0.1265 µM
  relative viability: 0.783
FH535 + Crizotinib; first compound 0.4 µM
  relative viability: 0.631
FH535 + Crizotinib; first compound 1.265 µM
  relative viability: 0.41
FH535; 0.04 µM
  relative viability: 0.878
FH535; 0.1265 µM
  relative viability: 0.887
FH535; 0.4 µM
  relative viability: 0.928
FH535; 1.265 µM
  relative viability: 0.789
